In patent US20070031511A1, “Method of treatment” (priority 2003, published 2007):
Read-outs that look alike come from different tables or passages of the source. Where a SMILES comes first, the peptide text is derived from it. Where no end group is shown, it is not given here. [ ]: non-standard residue; d: D form. pGlu = O=C1CC[C@@H](C(=O)O)N1

Experiments:
[1] = molecular target: T1, recombinant human progastrin6-80 (Homo sapiens, UniProt P01350); assay: Competition of metal ions with 59Fe3+ for binding to progastrin6-80; settings: metal ions 100 μM, 59Fe3+ 10 μM, progastrin6-80 5.6 μM
T1 construct: made in house
T1 sequence (P01350 27-101): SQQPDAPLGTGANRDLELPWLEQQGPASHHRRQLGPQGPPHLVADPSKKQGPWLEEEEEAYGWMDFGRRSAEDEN
Protocol: In order to determine the specificity of the interaction between progastrin and metal ions, the binding of metal ions to recombinant human progastrin6-80 was determined by measuring their ability to compete with radioactive ^59Fe^3+ for binding to the protein by the following methods (Baldwin et al, 2001).
Progastrin6-80 (5.6 μM) in pH 2.8 buffer (10 mM sodium formate, pH 2.8, 100 mM NaCl, 0.005% Tween 20) was incubated for 30 min at 4° C. with ^59Fe^3+ ions (10 μM, 23.6 cpm/pmol) in the presence of several di- and trivalent metal ions (100 μM). Excess radioactivity was removed by overnight dialysis (SpectraPor dialysis tubing, molecular weight cut-off 3,500, Spectrum Labs., Rancho Dominguez, Calif.) at 4° C. against pH 4.0 buffer (10 mM sodium acetate, pH 4.0, 100 mM NaCl, 0.005% Tween 20), containing 1 µM EDTA. The radioactivity associated with progastrin6-80 was determined by counting aliquots of the internal and external solutions in a γ-counter (LKB-Wallac, Turku, Finland).

[2] = Quenching of peptide tryptophan fluorescence by ferric ions (stoichiometry, apparent Kd); type: binding; settings: 10 mM sodium acetate pH 4.0, 100 mM NaCl, 0.005% Tween 20; mean ± S.E.; read-out: Kd (μM), apparent dissociation constant for ferric ions
Protocol: The tryptophan fluorescence of peptide solutions was measured in 3 mL quartz cuvettes thermostated at […], with a Spex Fluorolog-2 spectrofluorimeter (Spex Industries, Edison, N.J.), with the excitation and emission wavelengths set at 290 and 345 nm, respectively. The quenching of tryptophan fluorescence induced by the binding of metal ions was used to calculate the fraction of binding sites occupied, fa: fa=(yf−y)/(yf−yb) where y is the fluorescence signal at a given concentration of metal ions and yb and yf are the signals when the binding sites are fully occupied and unoccupied, respectively (Winzor et al, 1995). The stoichiometry, p, and apparent dissociation constant, Kd, were then obtained, using the program Sigmastat (Jandel Scientific, San Rafael, Calif.), from the intercept and slope of a linear regression of the data transformed as described by Winzor and Sawyer (1995) in terms of the equation Cs/fa=pCa+Kd/(1−fa) where Cs is the total concentration of metal ions, and Ca is the total concentration of glycine-extended gastrin17. For the bismuth binding studies, the data was fitted by non-linear regression with the program Sigmaplot (Jandel Scientific, San Rafael, Calif.) to the equations for models with one binding site or two binding sites with identical affinities: fa=x/(Kd1+x) or to the model with two binding sites with different affinities: fa=(Kd1·x+Kd2·x+2x^2)/2(Kd1·Kd2+Kd1·x+Kd2·x+x^2) where x is the concentration of free metal ions, Kd1 is the first site dissociation constant and Kd2 is the second site dissociation constant. For the one-site model the value of x at any given total concentration of metal ions was obtained by exact solution of the appropriate quadratic (Malby et al, 2001). For the two-site models the value of x was obtained by an iterative Newton-Raphson procedure (Linse et al, 1991). Absorption Spectroscopy
The tryptophan fluorescence of progastrin6-80, glycine-extended gastrin17 and related peptides was measured in the presence of increasing concentrations of ferric ions in 10 mM sodium acetate, pH 4.0, 100 mM NaCl, 0.005% Tween 20. […] Values from the indicated number of independent experiments were combined to obtain the mean values (±S.E.) presented above. No binding of ferric ions to Ggly1-4 or Ggly12-18 was observed.
The tryptophan fluorescence of amidated gastrin17 and related peptides was measured in the presence of increasing concentrations of ferric ions at pH 4.0 (8). Values of the stoichiometry and the apparent dissociation constant (Kd) were obtained from linear transformations of the data presented in FIG. 20A by least squares fitting. Values from the indicated number of independent experiments were combined to obtain the mean values (±S.E.) presented above.

IMGE-5 cells [3] = assay: Wound healing / cell migration assay; type: cell-based, mice; settings: wound healing assay, fragments and mutants shown at 1 nM (FIGS. 7B, 8B)
Protocol: (§1) The IMGE-5 cell line was established from the gastric mucosa of mice transgenic for a temperature-sensitive mutant of the SV40 large T antigen (Hollande et al, 2001). IMGE-5 cells were generally grown at 33° C. in DMEM containing 1 unit/ml γ-interferon, 10% FBS, 100 U/ml penicillin, and 100 μg/ml streptomycin (permissive conditions). For all experiments, cells were transferred to 39° C. in the same medium without […] (non-permissive conditions), where they display differentiated characteristics such as expression of functional adherens and tight junctions. All experiments have been performed on cells between passages 20 and 35.
In order to assess the effects of different stimuli on cell migration, wound healing experiments were performed as detailed elsewhere (Hollande et al, 1997). In brief, IMGE-5 cells were grown in 12-well plates in DMEM at 33° C. until they reached 80% confluence, then shifted to 39° C. and starved of serum for 24 h. The confluent monolayer was wounded using a 20 μl-pipette tip, and cells were then washed 3 times with phosphate-buffered saline (PBS: 2.7 mM KCl, 1.5 MM KH2PO4, 142 mM NaCl, and 10 mM Na2HPO4, pH 6.95) and treated with or without different compounds in DMEM with antibiotics. Morphology and migration of cells were observed and photographed immediately, and after treatment for 17 and 24 h. Wound width was measured at six different positions on the 24 h photographs, and averages calculated.

[4] = Solubility of peptides in NMR sample preparation; type: physicochemical; settings: NMR sample conditions, pH 5.3
Protocol: For the subsequent experiments, samples were prepared for NMR spectroscopy by dissolving 2.5 mg of peptide in 0.6 ml of 10% DMSO/10% ^2H2O/80% H2O at 278 K. The pH was adjusted with small amounts of 1M NaO^2H or ^2HCl to pH 5.3. ^1H chemical shifts were referenced to 2,2-dimethyl-2-silapenthane-5-sulfonate at 0 ppm via the chemical shift of the H2O resonance or an impurity at 0.15 ppm. NMR spectra were recorded on Bruker DRX-600 and AMX-500 instruments, as described previously (Barnham et al, 1999).
The peptides LE5AYG, LE5A, E5AY and E5A (approximately 2 mM) were dissolved in H2O with 5 or 10% ^2H2O. […] Sequence-specific ^1H NMR resonance assignments were made from two-dimensional nuclear Overhauser enhancement spectroscopy (NOESY) and total correlation spectroscopy (TOCSY).

IMGE-5 cells [5] = assay: IMGE-5 cell proliferation, MTT assay; type: cell-based, mice; settings: MTT assay, peptides shown at 1 nM (FIGS. 7A, 8A)
Protocol: as §1
A colorimetric assay was used to measure cell proliferation. Briefly, IMGE-5 cells were seeded in a 96-well plate at a density of 10^4 cells/well in DMEM containing 10% FBS and antibiotics. The following day, cells were synchronized in Go by incubation for 24 h in the same medium lacking FBS. The medium was replaced the next day with fresh medium containing 1% FBS and antibiotics and the peptides under investigation, and incubation was continued for 72 h. 15 μl of 5 mg/ml 3-(4,5-dimethylthiazol-2-yl)-2-5-diphenyltetrazolium bromide (MTT, Sigma, St Louis Mo.) was added per well, and the plate was incubated at 37° C. for 4 h before the medium was discarded. 200 μl 40 mM HCl in isopropanol was added to lyse the cells, and the absorbance at 570 nm was read on a BioRad Model 550 Microplate reader (BioRad, Hercules, Calif.).

[6] = read-out: Apparent first dissociation constant of complex with ferric ions, cited from earlier work
rectal mucosa = assay: Proliferation in the rectal mucosa of rectally defunctioned rats (metaphase-arrested cells); type: in vivo; settings: infused intraperitoneally 2.5 nmol/kg/hr, 4 weeks
Protocol: DFO (400 mg/kg) was administered intraperitoneally thrice weekly, and bismuth ions were administered as colloidal bismuth subcitrate (135 mg/kg/12 hours) by oral gavage 5 days per week. After 4 weeks, the rats were injected with vincristine to arrest cycling cells in metaphase, and sacrificed 3 hrs later. Crypt heights in the rectal mucosa, and the number of metaphase arrested cells per crypt, were then determined microscopically.

[7] = pH 4.0; Ref. 8 given in table; read-out: Kd (μM), apparent dissociation constant for ferric ions; cited from earlier work

Compound: [Fe+2] [ferrous ions]
- Ability to compete with 59Fe3+ for binding to progastrin6-80 [1]: able to compete effectively

Compound: CSCC[C@H](NC(=O)[C@H](Cc1c[nH]c2ccccc12)NC(=O)CNC(=O)[C@H](Cc1ccc(O)cc1)NC(=O)[C@H](C)NC(=O)[C@H](C)NC(=O)[C@H](C)NC(=O)[C@H](C)NC(=O)[C@H](C)NC(=O)[C@H](C)NC(=O)[C@H](CC(C)C)NC(=O)[C@H](Cc1c[nH]c2ccccc12)NC(=O)[C@@H]1CCCN1C(=O)CNC(=O)[C@@H]1CCC(=O)N1)C(=O)N[C@@H](CC(=O)O)C(=O)N[C@@H](Cc1ccccc1)C(=O)NCC(=O)O [GglyE6-10A] ([pGlu]GPWLAAAAAAYGWMDFG-OH)
- Kd [2]: 1.2 ± 0.11 µM
- Stimulation of IMGE-5 cell migration (IMGE-5 cells [3]): inactive
- Solubility [4]: Poor solubility
- Stimulation of IMGE-5 cell proliferation (IMGE-5 cells [5]): inactive

Compound: O=C(O)CN(CC(=O)O)CC(=O)O [nitrilotriacetic acid]
- Kd ([6]; pH 4.0): 830 nM
- Kd ([6]; pH 7.6): 0.19 nM

Compound: [Fe+3] [ferric ions]
- Ability to compete with 59Fe3+ for binding to progastrin6-80 [1]: able to compete effectively

Compound: GglyE7A: Ggly mutant, Glu7 replaced by Ala, SEQ ID NO:11 ([pGlu]GPWLEAEEEAYGWMDFG; ends and bridges not checked)
- Kd [2]: 0.2 ± 0.01 µM
- Stimulation of IMGE-5 cell migration (IMGE-5 cells [3]): inactive
- Stimulation of IMGE-5 cell proliferation (IMGE-5 cells [5]): inactive
- Stimulation of rectal mucosal proliferation (rectal mucosa): able to stimulate mucosal proliferation as well as Ggly

Compound: CSCC[C@H](NC(=O)[C@H](Cc1c[nH]c2ccccc12)NC(=O)CNC(=O)[C@H](Cc1ccc(O)cc1)NC(=O)[C@H](C)NC(=O)[C@H](C)NC(=O)[C@H](C)NC(=O)[C@H](C)NC(=O)[C@H](CCC(=O)O)NC(=O)[C@H](CCC(=O)O)NC(=O)[C@H](CC(C)C)NC(=O)[C@H](Cc1c[nH]c2ccccc12)NC(=O)[C@@H]1CCCN1C(=O)CNC(=O)[C@@H]1CCC(=O)N1)C(=O)N[C@@H](CC(=O)O)C(=O)N[C@@H](Cc1ccccc1)C(=O)NCC(=O)O [GglyE8-10A] ([pGlu]GPWLEEAAAAYGWMDFG-OH)
- Kd [2]: 0.37 ± 0.07 µM
- Solubility [4]: Poor solubility
- Stimulation of IMGE-5 cell proliferation (IMGE-5 cells [5]): active in proliferation assays, although less so than Ggly

Compound: LE5AYGWMDFG (LEEEEEAYGWMDFG; listed as Homo sapiens) [Ggly5-18]
- Stimulation of IMGE-5 cell migration (IMGE-5 cells [3]): to the same extent as Ggly
- Stimulation of IMGE-5 cell migration (IMGE-5 cells [3]; listed as LE5AYGWMDFG): fully active
- Kd [7]: 0.58 ± 0.19 µM
- Stimulation of IMGE-5 cell proliferation (IMGE-5 cells [5]): to the same extent as Ggly
- Stimulation of IMGE-5 cell proliferation (IMGE-5 cells [5]; listed as LE5AYGWMDFG): fully active
